Results on seven compounds are retold here after ChEMBL document CHEMBL1759889, “Susceptibility and mode of binding of the Mycobacterium tuberculosis cysteinyl transferase mycothiol ligase to tRNA synthetase inhibitors” (Bioorg Med Chem Lett, 2011).

SMILES strings stand for the structures. Active and inactive are the calls of the source. No cut-off for these calls is given here. Some results are limits rather than exact numbers.

Experiment [1] has as its target T1, L-cysteine:1D-myo-inositol 2-amino-2-deoxy-alpha-D-glucopyranoside ligase (Mycobacterium tuberculosis, UniProt P9WJM9).
T1 sequence (P9WJM9 whole entry): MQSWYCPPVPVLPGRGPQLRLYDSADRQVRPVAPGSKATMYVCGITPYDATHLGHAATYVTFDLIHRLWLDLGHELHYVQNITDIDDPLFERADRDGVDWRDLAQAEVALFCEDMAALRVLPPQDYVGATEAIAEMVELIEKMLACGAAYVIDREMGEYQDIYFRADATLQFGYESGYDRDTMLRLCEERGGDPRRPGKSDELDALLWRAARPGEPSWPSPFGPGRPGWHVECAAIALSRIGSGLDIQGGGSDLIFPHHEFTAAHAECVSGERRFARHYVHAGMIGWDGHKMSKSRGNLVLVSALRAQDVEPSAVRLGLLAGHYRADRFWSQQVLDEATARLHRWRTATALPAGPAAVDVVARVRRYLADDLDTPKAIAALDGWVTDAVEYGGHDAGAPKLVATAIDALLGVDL
The experiment can be described thus: Inhibition of Mycobacterium tuberculosis recombinant MBP-tagged MshC assessed as formation of fluorescently labeled Cys-GlcN-Ins by HPLC.

Experiment [2] addresses T2, L-cysteine:1D-myo-inositol 2-amino-2-deoxy-alpha-D-glucopyranoside ligase (Mycobacterium tuberculosis) (UniProt P9WJM9).
T2 sequence (whole entry): T1 sequence (P9WJM9 whole entry)
The experiment can be described thus: Binding affinity to Mycobacterium tuberculosis recombinant MBP-tagged MshC by STD-NMR analysis.

Experiment [3] deals with T2, L-cysteine:1D-myo-inositol 2-amino-2-deoxy-alpha-D-glucopyranoside ligase (Mycobacterium tuberculosis). The experiment can be described thus: Binding affinity to Mycobacterium tuberculosis recombinant MBP-tagged MshC by transferred NOESY analysis.
The target in experiment [4] is T1, L-cysteine:1D-myo-inositol 2-amino-2-deoxy-alpha-D-glucopyranoside ligase. The experiment can be described thus: Binding affinity to Mycobacterium tuberculosis recombinant MBP-tagged MshC by isothermal titration calorimetry assay. Background: Isothermal titration calorimetry measures the heat released or taken up as one component is titrated into another.

As to `C/C(=C\C(=O)OCCCCCCCCC(=O)O)C[C@@H]1OC[C@H](C[C@@H]2O[C@H]2[C@@H](C)[C@H](C)O)[C@@H](O)[C@H]1O` [MUPIROCIN], the IC50 (in general, the concentration at which inhibition is half-maximal) in experiment [1] is > 5000 µM.

Regarding `C[C@@H]1Cc2c(Cl)cc(C(=O)N[C@@H](Cc3ccccc3)C(=O)O)c(O)c2C(=O)O1` [3R14S-OCHRATOXIN A], the IC50 in experiment [1] amounted to 2500 µM. On to `Nc1ncnc2c1ncn2[C@@H]1O[C@H](COS(=O)(=O)NC(=O)[C@@H](N)CC(=O)O)[C@@H](O)[C@H]1O`, for which the result in experiment [2] and in experiment [3] was inactive. In experiment [1], the IC50 is 1200 µM. In the case of `N[C@H]1CCC[C@H]1C(=O)O`, the IC50 in experiment [1] was > 4000 µM. For `Nc1ncnc2c1ncn2[C@@H]1O[C@H](COS(=O)(=O)NC(=O)[C@@H](N)CO)[C@@H](O)[C@H]1O`, the half-inhibitory concentration (IC50) in experiment [1] came out at 5000 µM. Turning to `C[C@@H]1C[C@H](C)C[C@H](C)[C@@H](O)CC(=O)O[C@H]([C@@H]2CCC[C@H]2C(=O)O)C/C=C/C=C(/C#N)[C@H](O)[C@@H](C)C1` [BORRELIDIN], in experiment [1], the IC50 is > 2000 µM. In the case of `Nc1ncnc2c1ncn2[C@@H]1O[C@H](COS(=O)(=O)NC(=O)[C@@H](N)CS)[C@@H](O)[C@H]1O`, the outcome in experiment [2] was inactive. In addition, the IC50 in experiment [1] was 0.05 µM. Moreover, the dissociation constant (Kd) (in general, the concentration at which binding is half-saturated) in experiment [4] was determined as 0.0485 µM.
